Results as given in PubChem BioAssay AID493147 (Broad Institute, 2011).
“And” between values parts separate entries of the source, which are not always exact repeats. Equal values may be shown once. Inconclusive results are not listed. The source made the active and inactive calls. The rule behind the calls is not given here.

System: NIH-3T3 viability with fluconazole, Alamar Blue, 48 h
Assay: PubChem AID 493147
Settings: not given

| SMILES | AC50 |
| --- | --- |
| Cc1cccc(N2CCN(C(=O)c3ccc(Cl)cc3)CC2)n1 | 120 nM |
| COc1cccnc1N1CCN(C(=O)c2ccc(Cl)cc2)CC1 | 124 nM |
| COC(=O)Cn1nc(-c2cccc(F)c2)c2ccccc21 | 12800 nM |
| COC(=O)Cn1nc(-c2ccccc2)c2ccc(OC)cc21 | < 100 nM |
| COC(=O)Cn1nc(-c2ccccc2OC)c2ccccc21 | 1040 nM |
| COC(=O)Cn1nc(-c2ccc(OC)cc2)c2ccccc21 | 1020 nM |
| COc1ccc(C(=O)N2CCN(c3ccccn3)CC2)cc1 | 461 nM |
| CC1CCN(C(=O)Cn2c3ccccc3c3nc4n(c(=O)c32)CCS4)CC1 | > 26000 nM (inactive) |
| COc1ccc(NC(=O)Cn2c3ccccc3c3nc4n(c(=O)c32)CCS4)cc1 | 14900 nM |
| COC(=O)Cn1nc(I)c2ccccc21 | 528 nM |
| O=C(Cn1nc(-c2ccccc2)c2ccccc21)NCc1ccc(Cl)cc1 | 25900 nM |
| COC(=O)Cn1ncc2ccccc21 | < 100 nM |
| O=C(Cn1nc(-c2ccccc2)c2ccccc21)OC1CCC1 | 191 nM |
| O=C(c1ccc(Cl)cc1)N1CCN(c2cccc(C(F)(F)F)n2)CC1 | 17600 nM |
| Cc1ccc(N2CCN(C(=O)c3ccc(Cl)cc3)CC2)nc1 | > 26000 nM (inactive) |
| O=C(c1ccc(Cl)cc1)N1CCN(c2nc3ccccc3o2)CC1 | 24200 nM |
| COC(=O)Cn1c2ccccc2c2nc3n(c(=O)c21)CCS3 | 2660 nM |
| O=C(Cn1c2ccccc2c2nc3n(c(=O)c21)CCS3)N1CCCC1 | < 100 nM |
| COC(=O)Cn1nc(-c2ccc(C(F)(F)F)cc2)c2ccccc21 | < 100 nM |

System: not listed separately
Assay: PubChem AID 493147
Settings: NIH-3T3 viability with fluconazole, Alamar Blue, 48 h; at 2.6 µM (top of the series)

| SMILES | activity change, negative = toxicity |
| --- | --- |
| COc1ccc2c(c1)c1nc3n(c(=O)c1n2CC(=O)N1CCC(C)CC1)CCS3 | 41.3% (inactive) |

Same assay, conditions: NIH-3T3 viability with fluconazole, Alamar Blue, 48 h; at 26 µM (top of the series)

| SMILES | activity change, negative = toxicity |
| --- | --- |
| O=C1OCCC1n1nc(-c2ccccc2)c2ccccc21 (configuration not stated) | 4.08% (inactive) |
| O=c1c2[nH]c3ccccc3c2nc2n1CCS2 | -31.6% (inactive) |
| COC(=O)Cn1nc(-c2ccc(F)cc2)c2ccccc21 | -40.8% (inactive) |
| COC(=O)Cn1nc(C)c2ccccc21 | -17.5% (inactive) |
| O=C(Cn1c2ccccc2c2nc3n(c(=O)c21)CCS3)N1CCOCC1 | -8.2% (inactive) |
| CC(C)OC(=O)Cn1nc(-c2ccccc2)c2ccccc21 | 11.4% (inactive) |
| Cc1ccnc(N2CCN(C(=O)c3ccc(Cl)cc3)CC2)c1 | -20% (inactive) |
| COC(=O)Cn1nc(-c2ccc(Cl)cc2)c2ccccc21 | -6.09% (inactive) |
| O=C(Cn1c2ccccc2c2nc3n(c(=O)c21)CCS3)NCCc1ccc(Cl)cc1 | -12% (inactive) |
| COC(=O)Cn1nc(-c2cccc(OC)c2)c2ccccc21 | -29.2% (inactive) |
| COC(=O)Cn1nc(-c2ccccc2)c2ccc(C)cc21 | 16.9% (inactive) |
| COC(=O)Cn1nc(-c2ccccc2)c2cc(OC)ccc21 | -0.175% (inactive) |
| COC(=O)Cn1nc(-c2ccc(C)cc2)c2ccccc21 | -25% (inactive) |
| Cc1nn(S(C)(=O)=O)c2ccccc12 | -19.3% (inactive) |
| N#Cc1cccc(N2CCN(C(=O)c3ccc(Cl)cc3)CC2)n1 | -27.5% (inactive) |
| COC(=O)Cn1nc(-c2ccccc2)c2cc(Cl)ccc21 | -3.67% (inactive) |
| CCCNC(=O)Cn1nc(-c2ccccc2)c2ccccc21 | 20.3% (inactive) |
| O=c1c2[nH]c3ccc(F)cc3c2nc2n1CCS2 | 9.27% (inactive) |
| O=C(Cn1nc(C(=O)N2CCCCC2)c2ccccc21)N1CCOCC1 | -3.68% (inactive) |
| COC(=O)C(C)(C)n1nc(-c2ccccc2)c2ccccc21 | -1.11% (inactive) |
| COC(=O)Cn1nc(-c2ccccc2)c2ccc(C(F)(F)F)cc21 | -18.2% (inactive) and -8.9% (inactive) |
| COC(=O)Cn1nc(-c2ccccc2C)c2ccccc21 | 24.8% (inactive) |
| O=C(Cn1c2ccc(F)cc2c2nc3n(c(=O)c21)CCS3)N1CCCCCC1 | 21.2% (inactive) |
| CCN(CC)C(=O)Cn1c2ccc(F)cc2c2nc3n(c(=O)c21)CCS3 | -39.8% (inactive) |
| O=C(Cn1nc(-c2ccccc2)c2ccccc21)Oc1ccccc1 | 26.7% (inactive) |
| O=C(c1ccc(F)cc1)N1CCN(c2ccccn2)CC1 | -8.14% (inactive) |

| SMILES | activity change, negative = toxicity |
| --- | --- |
| CCCCC(=O)N1CCN(c2ccccn2)CC1 | 5.32% (inactive) |
| N#CCn1nc(-c2ccccc2)c2ccccc21 | 8% (inactive) |
| COc1ccc2c(c1)c1nc3n(c(=O)c1n2CC(=O)N1CCC(Cc2ccccc2)CC1)CCS3 | 8.36% (inactive) |
| CC(C)C(=O)N1CCN(c2ccccn2)CC1 | 10% (inactive) |
| O=C(c1ccccc1Cl)N1CCN(c2ccccn2)CC1 | -3.33% (inactive) |
| O=C(c1cccc(Cl)c1)N1CCN(c2ccccn2)CC1 | -4.09% (inactive) |
| O=C(O)c1nn(Cc2ccc(Cl)cc2)c2ccccc12 | -35.3% (inactive) |
| COC(=O)Cn1nc(-c2ccccc2)c2cc(C)ccc21 | 3.35% (inactive) |
| O=C(c1ccc(Cl)cc1)N1CCN(c2ccc(C(F)(F)F)cn2)CC1 | 0.409% (inactive) |
| CNC(=O)Cn1nc(-c2ccccc2)c2ccccc21 | 2.83% (inactive) |
| O=C(Cn1c2ccc(F)cc2c2nc3n(c(=O)c21)CCS3)N1CCCCC1 | -20.6% (inactive) |
| COC(=O)CCCn1nc(-c2ccccc2)c2ccccc21 | -45% (inactive) |
| CC(C)(C)OC(=O)Cn1nc(-c2ccccc2)c2ccccc21 | 20.8% (inactive) |
| c1ccc(-c2nn(Cc3ncco3)c3ccccc23)cc1 | -36.1% (inactive) |
| O=C(C1CCCCC1)N1CCN(c2ccccn2)CC1 | -25.3% (inactive) |
| N#Cc1ccc(C(=O)N2CCN(c3ccccn3)CC2)cc1 | 15.4% (inactive) |
| N#Cc1ccc(N2CCN(C(=O)c3ccc(Cl)cc3)CC2)nc1 | -32.5% (inactive) |
| O=C(O)Cn1nc(-c2ccccc2)c2ccccc21 | -23% (inactive) |
| COC(=O)[C@@H](C)n1nc(-c2ccccc2)c2ccccc21 (racemic) | -17.9% (inactive) |
| COC(=O)Cn1c(-c2ccccc2)nc2ccccc21 | 10.3% (inactive) |
| O=C(Cn1c2ccccc2c2nc3n(c(=O)c21)CCS3)N1CCCCC1 | -8.42% (inactive) |
| O=C(c1ccc(Cl)cc1)N1CCN(c2ncccc2C(F)(F)F)CC1 | -31.9% (inactive) |
| O=C(Cn1c2ccccc2c2nc3n(c(=O)c21)CCS3)N1CCCC1 | -33.6% (inactive) and 2.45% (inactive) |
| COC(=O)Cn1nc(-c2ccccc2)c2ccccc21 | -33.7% (inactive) |
| COCCn1nc(-c2ccccc2)c2ccccc21 | -7.82% (inactive) |
| COCCC(=O)N1CCN(c2ccccn2)CC1 | 2.45% (inactive) |
